Laboratory results as given in US20230270112A1, “A METHOD OF DI[…] GASEOUS ENVIRONMENT, A LIQUID, OR A SOLID SURFACE” (priority 2020, published 2023).
Read-outs that look alike come from different tables or passages of the source.

Assays:
[1] = with cucurbit[7]uril; cited from earlier work
[2] = system: respiratory syncytial virus (RSV); assay: Titration by TCID50 assay; type: cell-based; conditions: FIG. 3b
[3] = system: herpes simplex virus serotype two (HSV-2); assay: Titration by TCID50 assay (incl. guest-host chemistry assay); type: cell-based; conditions: mixed with the virus for 5 minutes, FIG. 3a
[4] = system: herpes simplex virus serotype two (HSV-2); assay: DNA exposure assay; conditions: FIG. 6
SARS-CoV-2 = type: cell-based
[5] = system: herpes simplex virus serotype two (HSV-2); assay: Time of addition study; type: cell-based; conditions: FIG. 7
[6] = system: herpes simplex virus serotype two (HSV-2); assay: Virucidal assay; type: cell-based; conditions: FIG. 5
[7] = system: herpes simplex virus serotype two (HSV-2); assay: Dose-response (plaque) assay; type: cell-based; conditions: FIG. 4a
[8] = system: respiratory syncytial virus (RSV); assay: Dose-response (plaque) assay; type: cell-based; conditions: FIG. 4b

For `NC12CC3CC(CC(C3)C1)C2` [ADA, 1-Adamantylamine], the binding affinity [1] is listed as 1.7+/−0.8×10^14 M^−1.
With `O=C1N2CN3C(=O)N4CN5C(=O)N6CN7C(=O)N8CN9C(=O)N%10CN%11C(=O)N%12CN1C1C2N2CN%13C(=O)N(CN%14C(=O)N(CN%15C(=O)N(CN%16C(=O)N(CN%17C(=O)N(CN1C2=O)C%12C%11%17)C%10C9%16)C8C7%15)C6C5%14)C4C3%13` (stereo not shown) [cucurbit[6]uril] the antiviral effect [2] was “ineffective”, the viral titre reduction [3] was “lack of viral titre reduction” and the “DNA detected following viral exposure, DNAse and PCR amplification” value [4] was “DNA was detected”.
For `O=C1N2CN3C(=O)N4CN5C(=O)N6CN7C(=O)N8CN9C(=O)N%10CN%11C(=O)N%12CN%13C(=O)N%14CN%15C(=O)N%16CN1C1C2N2CN%17C(=O)N(CN%18C(=O)N(CN%19C(=O)N(CN%20C(=O)N(CN%21C(=O)N(CN%22C(=O)N(CN%23C(=O)N(CN1C2=O)C%16C%15%23)C%14C%13%22)C%12C%11%21)C%10C9%20)C8C7%19)C6C5%18)C4C3%17` (stereo not shown) [cucurbit[8]uril, Cucurbit[8]uril], the antiviral effect [2] was “ineffective”, the viral titre reduction [3] was “lack of viral titre reduction” and the “DNA detected following viral exposure, DNAse and PCR amplification” value [4] was “No DNA was detected”.
With cucurbit[7]uril the antiviral efficacy (SARS-CoV-2) was “largely ineffective”, the antiviral efficacy (SARS-CoV-2; 50 mg/mL) was “highly effective” and the viral inhibition ([5]; added after the virus has been exposed to the cells (post-infection)) was “no viral inhibition”. For the same molecule, the antiviral effect ([5]; added directly to the virus before infection ('during infection')) was “an antiviral effect was observed”, the viral inhibition ([5]; removed prior to viral introduction (pre-treatment)) was “no viral inhibition” and the “mode of action (virucidal or virustatic)” value [6] was “virucidal”. For the same molecule, the “reduction in viral titre” value ([3]; 20-50 mg/mL) was “approximately 5 log”, the EC50 [7] was 1270 µg/mL and the EC50 [8] was 1070 µg/mL.
